Experimental findings from US20130072385A1, “METHODS FOR DELAYING BUD BREAK BY APPLYING ABA ANALOGS” (priority 2011, published 2013) are described below.

SMILES strings stand for the structures.

Data set [1] relates to Cabernet Franc grapevines. The data set is described as follows: Fall foliar spray of mature Cabernet Franc grapevines, bud break the following spring (BBCH rating). The arrangement: key to Average BBCH rating of bud developmental stages: BBCH scale: 1 = first bud swelling, 99 = defoliated, re-entering dormancy. The settings on record: for Average BBCH rating of bud developmental stages: 300 ppm in 0.1% Brij 98, fall foliar application; for Delay of bud break the following spring / Impact on bud mortality: foliar application at about 0.125 grams per vine in the fall. Type of data set: in vivo. The method, then:
(§1) A study was conducted to determine the effect of spraying grapevines with ABA analogs in the fail on bud break the following spring. Mature Cabernet Franc grapevines growing in a research vineyard in Benton Harbor, Mich. were sprayed to drip with surfactant alone or surfactant and ABA analog on Oct. 25, 2008. Vines were sprayed with approximately 300 ml (113 grams ABA analog/acre) applied to each of 9 vines per treatment arranged in three replicates of three vines each. The following spring prior to bud break the vines were pruned to 3-6 buds per spur and bud break of 40 buds per vine (4 buds on each of 10 spurs) was rated periodically using the BBCH (Biologische Bundesanstalt, Bundessortenamt und Chemische Industrie) scale of development where a rating of 1 represents the first sign of bud swelling and 99 represents a defoliated plant re-entering dormancy at the end of the growing season.

The subject of data set [2] is Cabernet Franc grapevines. The data set is described as follows: Fall foliar spray of Cabernet Franc grapevines, fruit maturity the following fall (juice pH and Brix). Type of data set: in vivo. Conditions: for Brix of juice / pH of juice: 300 ppm in 0.1% Brij 98, fall foliar application, grapes harvested on Oct. 24, 2009; for Effect on maturation of the following crop of grapes (juice pH and Brix): foliar application at about 0.125 grams per vine in the fall. The method, then:
as §1
When the control fruit had reached maturity three clusters of grapes were randomly harvested from each 3 vine replicate. Brix and pH measurements were made of the juice expressed by hand squeezing the grape clusters. Both the pH and Brix readings were lower for the grapes from the ABA analog treated vines indicating a delay of fruit maturity.

Data set [3] deals with Cabernet Franc grapevines. The data set is described as follows: Fall foliar spray of Cabernet Franc grapevines with PBI-425 or PBI-524, broken buds the following spring. Type of data set: in vivo. Conditions: for Average number of broken buds per vine: Apr. 11, 2012; for Effect on bud break the following spring / Impact on bud mortality: foliar application at about 0.03-0.3 grams per vine in the fall. The method, then: A study was conducted to determine the elect of spraying Cabernet Franc grapevines with ABA analog PBI-425 or PBI-524 in the fall on bud break the following spring. Mature Cabernet Franc grapevines growing in a research vineyard in Benton Harbor, Mich. were sprayed to drip with surfactant alone or surfactant and ABA analog on Oct. 21, 2011. Vines were sprayed with approximately 300 ml applied to each of 9 vines per treatment arranged in three replicates of three vines each. Applied at about 100 gallons per acre 100 ppm treatment represents 37.8 grams per acre and 1000 ppm represents 378.4 grams per acre. In the spring after treatment prior to bud break the vines were pruned to 3-6 buds per spur and bud break of the entire vine was determined in the spring.

A further data set deals with Concord grape vines. The data set is described as follows: Spring spray of eco-dormant field grown Concord grape vines, bud break. It is filed as in vivo, Concord grapevines. Conditions: 100 ppm PBI-429 plus 0.5% Brij 98, sprayed 2 times in spring. As to the method:
A study was conducted to evaluate the effect of spraying eco-dormant Concord grape vines with ABA or ABA analog plus surfactants on bud break. Mature field grown Concord grape vines were sprayed to runoff 2 times in the spring after pruning and before bud swell. Three replicates of 3 vines each were treated with each treatment solution. Treatments were arranged in a randomized complete block design down a single vineyard row, Bud break was monitored by counting the number of broken buds of the distal 5 buds on 4 proximal canes on the middle vine of each 3 vine replicate. Bud break was only very slightly delayed by any of the treatments compared to the water sprayed control (Table 1).

The test system of data set [4] is Concord grapevines. Kind of data set: Repeated spray of potted Concord grapevines during the bud break period. It is filed as in vivo. The settings on record: for Average number of broken buds per vine: 100 ppm in 0.05% Silwet L77, repeated spray. As to the method:
A study was conducted to determine the effect of spraying Concord grapevines with ABA or ABA analog PBI-429 during bud break. Potted concord grapevines were placed in greenhouse conditions to promote bud break and the vines were repeatedly sprayed with ABA or ABA analog solutions. The vines were sprayed 2, 4, 8, 12 and 14 days after exposure of the vines into bud break promoting temperatures. Bud break was rated 6, 7, 8, 11, 12, 13, 14, 15, 19 and 20 days after vines were placed in warm bud break promoting conditions.

For data set [5], the system named is Concord grapevines. Kind of data set: Fall soil drench of potted Concord grapevines, bud break the following spring. Type of data set: in vivo. More on the design: key to Average rating of bud break (1-6 scale): 1 = no growth to 6 = three or more leaves showing. The settings on record: for Average rating of bud break (1-6 scale): 100 ppm (100 mg/pot) fall soil drench. As to the method: A study was conducted to determine the effect of application of ABA or ABA analog as a soil drench in the fall on bud break of potted Concord grapevines the following spring. Two year old eco-dormant Concord grapevines were obtained from a Concord Nurseries in the spring. Bare-root vines were planted in 14 liter pots filled with Promix BX (available from Premier Horticulture Inc. Quakertown, Pa.) and grown outside for about 5 months (May October) prior to treatment. Plants received irrigation as needed and fertilized weekly (1 g/L all purpose fertilizer 20-20-20, The Scotts Company, Marysville, Ohio). Uniform plants were selected for the study. A total of 1000 mL of water or chemical solution was applied to the soil of each plant.
After chemical treatment, the ten replicate plants per treatment were arranged in a randomized complete block experimental design. The potted vines were surrounded by bark chips the depth of the soil in the pot to insulate the roots and prevent cold damage. The plants became dormant for the winter. In the following spring the vines were pruned to 5 buds per vine before bud break and bud break was monitored over time (Table 4). The buds were rated for bud break periodically on a scale from 1 for no growth to 6 for three or more leaves showing
Potted Concord grapevines were treated with 1000 mL water, solution containing 1000 mg ABA or solution containing 100 mg PBI-429. The dose of RBI-429 was used at one-tenth of ABA dose based on the preliminary results.

The subject of data set [6] is PF-11 nectarine trees. Kind of data set: Fall foliar spray of PF-11 nectarine trees, bud break the following spring. Type of data set: in vivo. The method, then:
(§2) A study was conducted to determine the effect of spraying nectarine trees with ABA or ABA analogs in the fall on bud break the following spring. Mature PF-11 nectarine trees were sprayed to drip with surfactant alone or surfactant and ABA or ABA analog on Oct. 19, 2009. Trees were sprayed with approximately 500 ml (20.5 grams ABA analog/acre) applied to each of 6 trees per treatment arranged in a randomized complete block design. The following spring bud break on pre-selected branches was monitored.

Data set [7] relates to PF-11 nectarine trees. Kind of data set: Fall foliar spray of PF-11 nectarine trees, fruit number per tree the following spring. It is filed as in vivo. The method, then: as §2
[8] abbreviates: 100 ppm in 0.1% Silwet Brij 98, fall foliar application.

As for `C#CC1(C)CC(=O)C=C(C)C1(O)C=CC(C)=CC(=O)O` (racemic) [PBI-524], the “Average BBCH rating of bud developmental stages” value in data set [1] (May 1, 2009) is given as 0.0; in data set [1] (May 5), 0.4; in data set [1] (May 12) it was 1.0; in data set [1] (May 21) it was 3.7; in data set [1] (May 28) it was 6.7. Also, the “Delay of bud break the following spring” value in data set [1] is given as “about 15 days”. Moreover, the “Impact on bud mortality” value in data set [1] and in data set [3] was “without apparent impact on bud mortality” each time. The compound further gave a Brix of juice in data set [2] of 19.37. Moreover, the pH of juice in data set [2] is on record as 3.14. Besides, in data set [2], the “Effect on maturation of the following crop of grapes (juice pH and Brix)” value is given as “delayed maturation”. The “Average number of broken buds per vine” value is 13 in data set [3] (setting [8]) and 2 in data set [3] (1000 ppm in 0.1% Silwet Brij 98, fall foliar application). The “Effect on bud break the following spring” value in data set [3] is “delayed bud break”.
For `C#CC1(C)CC(=O)C=C(C)C1(O)C=CC(C)=CC(=O)O` (centres unmarked) [PBI-425], the “Average number of broken buds per vine” value in data set [3] (setting [8]) came out at 11. Moreover, in data set [3], the “Effect on bud break the following spring” value is recorded as “delayed bud break” and the “Impact on bud mortality” value is recorded as “without apparent impact on bud mortality”.
On to `C#CC1(C)CC(=O)C=C(C)C1(O)/C=C/C(C)=C\C(=O)OC` (centres unmarked) [PBI-429, 8′acetylene-ABA methyl ester], for which the entries for the “Average percent broken buds” value in the data set with Concord grape vines (April 24) and in the data set on Concord grape vines (April 30) were 8% and 18%, respectively. The “Average number of broken buds per vine” value is reported as 0.7 in the data set with Concord grapevines [4] (6 days after warming); 0.7 with Concord grapevines [4] (7 days after warming); 1.7 with Concord grapevines [4] (8 days after warming); 2.5 with Concord grapevines [4] (11 days after warming); 2.5 with Concord grapevines [4] (12 days after warming); 3.0 with Concord grapevines [4] (13 days after warming). Further, the “Average number of broken buds per vine” value in the data set on Concord grapevines [4] (14 days after warming) amounted to 3.0; in the data set with Concord grapevines [4] (15 days after warming), 4.0; with Concord grapevines [4] (19 days after warming), 4.3; in the data set with Concord grapevines [4] (20 days after warming), 4.3. For the same compound, in the data set on Concord grapevines [4] (repeated spray application during the bud break period), the “Effect on average number of broken buds over time” value is given as “not significantly impacted”. For the same compound, the “Delay of bud break compared to ABA treated or untreated vines” value in the data set on Concord grapevines [5] (100 mg fall soil drench) is “about 2 weeks”. For the same compound, the “Average rating of bud break (1-6 scale)” value with Concord grapevines [5] (Apr. 23, 2008) is 1.0; with Concord grapevines [5] (April 28), 1.0; in the data set on Concord grapevines [5] (April 30) it was 1.0; in the data set with Concord grapevines [5] (May 2) it was 1.0; in the data set on Concord grapevines [5] (May 5), 1.0; in the data set with Concord grapevines [5] (May 7), 1.0. Also, the “Average rating of bud break (1-6 scale)” value turned out to be 1.0 with Concord grapevines [5] (May 9); 1.0 in the data set on Concord grapevines [5] (May 12); 1.0 in the data set on Concord grapevines [5] (May 14); 1.0 with Concord grapevines [5] (May 16); 1.2 in the data set with Concord grapevines [5] (May 19); 1.2 in the data set on Concord grapevines [5] (May 21). In addition, the “Average rating of bud break (1-6 scale)” value in the data set with Concord grapevines [5] (May 23) was 1.8; in the data set on Concord grapevines [5] (May 28), 2.7. The “Average BBCH rating of bud developmental stages” value in data set [1] (May 1, 2009) is listed as 0.1; in data set [1] (May 5) it was 0.4; in data set [1] (May 12), 1.0; in data set [1] (May 21), 3.2; in data set [1] (May 28), 6.0. In addition, the “Delay of bud break the following spring” value in data set [1] is listed as “about 15 days”. For the same compound, the “Impact on bud mortality” value in data set [1] is “without apparent impact on bud mortality”. Moreover, the Brix of juice in data set [2] is 19.32. In addition, the pH of juice in data set [2] is 3.16. Also, in data set [2], the “Effect on maturation of the following crop of grapes (juice pH and Brix)” value is recorded as “delayed maturation”. The “Potency relative to ABA in delaying bud break” value with PF-11 nectarine trees [6] (100 ppm PBI-429 versus 10,000 ppm ABA, fall foliar application) is “about 100 times”. For the same compound, in the data set on PF-11 nectarine trees [6] (100 ppm in 0.1% Brij 98, fall foliar application, April 8), the “Percentage of broken floral buds” value amounted to 56 Percentage. In the data set with PF-11 nectarine trees [7] (100 ppm in 0.1% Brij 98, fall foliar application, June 10), the “Average number of fruit per tree” value is on record as 75. In addition, the “Effect on number of fruit per tree the following spring” value in the data set on PF-11 nectarine trees [7] (fall foliar application) is given as “reduced the number of fruit per tree”.
